Source: ChEMBL document CHEMBL1201862, “PubChem BioAssay data set” (2004)
Active and inactive are the calls of the source.

Experiments:
HEK293 [1] = test: inhibition of NOD1-driven NF-kB reporter – cell-based, luminescence, uHTS, primary screen (AID 1578); assay type: functional; settings: Homo sapiens
HEK293 [2] = test: cells; assay type: functional, cell-based; settings: Homo sapiens
[3] = target: T1, Voltage-gated N-type calcium channel alpha-1B subunit/Amyloid beta A4 precursor protein-binding family A member 1 (Homo sapiens, UniProt Q00975+Q02410); assay type: protein assay
HEK293 [4] = test: cells; assay type: functional, cell-based; settings: Homo sapiens; remark: listed apart in the source
[5] = target: Nucleotide-binding oligomerization domain-containing protein 2 (Homo sapiens, UniProt Q9HC29); test: inhibition of NOD2-driven NF-kB reporter – cell-based, luminescence, uHTS, HEK293 (AID 1566); assay type: functional
HEK293 [6] = test: NOD2 signaling inhibitors in MDP-stimulated cells, cell-based, uHTS, luminescence (AID 2001); assay type: functional; settings: Homo sapiens
[7] = target: T1, Voltage-gated N-type calcium channel alpha-1B subunit/Amyloid beta A4 precursor protein-binding family A member 1; assay type: protein assay; remark: listed apart in the source
HEK293 [8] = test: cells; assay type: functional, cell-based; settings: Homo sapiens; remark: listed apart in the source
[9] = target: T2, Apoptotic protease-activating factor 1 (Homo sapiens, UniProt O14727); assay type: functional
T2 sequence (O14727 whole entry): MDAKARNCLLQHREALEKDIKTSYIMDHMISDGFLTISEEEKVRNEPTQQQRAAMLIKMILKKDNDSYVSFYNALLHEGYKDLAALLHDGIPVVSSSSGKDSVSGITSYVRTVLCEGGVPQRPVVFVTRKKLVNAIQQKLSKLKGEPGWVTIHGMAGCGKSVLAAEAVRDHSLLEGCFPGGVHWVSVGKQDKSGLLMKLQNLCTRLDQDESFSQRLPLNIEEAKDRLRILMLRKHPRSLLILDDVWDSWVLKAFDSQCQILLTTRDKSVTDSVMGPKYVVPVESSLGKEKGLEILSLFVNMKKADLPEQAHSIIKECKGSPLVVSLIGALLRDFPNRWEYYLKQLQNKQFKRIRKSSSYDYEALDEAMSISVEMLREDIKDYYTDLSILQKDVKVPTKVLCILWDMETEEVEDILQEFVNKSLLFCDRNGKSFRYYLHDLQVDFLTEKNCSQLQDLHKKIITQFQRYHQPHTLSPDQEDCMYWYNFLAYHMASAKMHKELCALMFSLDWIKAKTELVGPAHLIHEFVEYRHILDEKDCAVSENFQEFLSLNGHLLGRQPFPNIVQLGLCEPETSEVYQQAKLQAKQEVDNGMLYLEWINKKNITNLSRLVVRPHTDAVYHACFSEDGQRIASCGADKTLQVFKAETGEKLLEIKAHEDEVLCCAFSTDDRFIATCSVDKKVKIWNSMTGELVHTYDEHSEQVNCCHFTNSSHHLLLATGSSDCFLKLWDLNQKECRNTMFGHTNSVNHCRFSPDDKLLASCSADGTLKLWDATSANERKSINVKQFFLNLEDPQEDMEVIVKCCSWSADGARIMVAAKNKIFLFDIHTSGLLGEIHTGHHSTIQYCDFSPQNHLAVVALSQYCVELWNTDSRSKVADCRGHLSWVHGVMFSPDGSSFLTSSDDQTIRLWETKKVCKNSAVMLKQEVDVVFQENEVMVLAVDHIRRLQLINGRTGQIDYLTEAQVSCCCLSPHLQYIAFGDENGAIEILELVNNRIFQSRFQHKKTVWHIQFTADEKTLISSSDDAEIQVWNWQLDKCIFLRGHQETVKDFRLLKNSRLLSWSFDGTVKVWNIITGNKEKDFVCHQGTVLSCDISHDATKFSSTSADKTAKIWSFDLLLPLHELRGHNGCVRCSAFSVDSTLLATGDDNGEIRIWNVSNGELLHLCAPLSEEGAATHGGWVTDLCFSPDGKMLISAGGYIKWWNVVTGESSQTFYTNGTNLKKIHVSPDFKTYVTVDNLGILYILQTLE

[10] = target: E3 ubiquitin-protein ligase Mdm2 (Homo sapiens, UniProt Q00987); test: MDM2-luc reporter signal enhancers, multi-concentration potency testing, MDM2 ubiquitin-protein ligase inhibitor program, whole-cell format, luminescence detection, 384-well microplate (AID 1394); assay type: functional;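 further: MDM2 E3 inhibitors raise luminescence so EC50 is for signal enhancement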
[11] = Luminescence Cell-Based Dose Retest to Confirm Inhibitors of Cancer Stem Cells. [Related pubchem assays (depositor defined):AID2717, AID2721]; assay type: functional; settings: Homo sapiens
[12] = viability loss of HMLE_sh_eGFP cells – cell-based, luminescence, counter-screen for HMLE_sh_ECad selective toxicity project, dose response (AID 463074); assay type: functional, Homo sapiens;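 further: HMLE human mammary epithelial cells expressing control shRNA against eGFP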
[13] = loss of viability in HepG2 cells – cell-based, CellTiter-Glo, cherry-picked, cytotoxicity control for Shn3 inhibitor project, dose response (AID 624134); assay type: functional
[14] = non-specific 3'UTR reporter inhibition in Clone20-Shn3RL – cell-based, Renilla luciferase, cherry-picked, counter-screen for Shn3 inhibitor project, dose response (AID 624133); assay type: functional
Cytochrome P450 2C19 = Cytochrome P450 2C19 (Homo sapiens, UniProt P33261); test: Cytochrome panel assay with activity outcomes. Panel member name: p450-cyp2c19 Compounds with AC50 equal or less than 10 uM are considered active; assay type: functional
[15] = restored growth of temperature-sensitive Burl-1 yeast – whole organism, S. cerevisiae, Burl-1 ts mutant, luminescence, counter-screen for SUMOylation pathway inhibitor project, dose response (AID 463199); assay type: functional
Cytochrome P450 1A2 = target: T3, Cytochrome P450 1A2 (Homo sapiens, UniProt P05177);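 further: PubChem cytochrome P450 panel assay, CYP1A2 panel member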
T3 sequence (P05177 whole entry): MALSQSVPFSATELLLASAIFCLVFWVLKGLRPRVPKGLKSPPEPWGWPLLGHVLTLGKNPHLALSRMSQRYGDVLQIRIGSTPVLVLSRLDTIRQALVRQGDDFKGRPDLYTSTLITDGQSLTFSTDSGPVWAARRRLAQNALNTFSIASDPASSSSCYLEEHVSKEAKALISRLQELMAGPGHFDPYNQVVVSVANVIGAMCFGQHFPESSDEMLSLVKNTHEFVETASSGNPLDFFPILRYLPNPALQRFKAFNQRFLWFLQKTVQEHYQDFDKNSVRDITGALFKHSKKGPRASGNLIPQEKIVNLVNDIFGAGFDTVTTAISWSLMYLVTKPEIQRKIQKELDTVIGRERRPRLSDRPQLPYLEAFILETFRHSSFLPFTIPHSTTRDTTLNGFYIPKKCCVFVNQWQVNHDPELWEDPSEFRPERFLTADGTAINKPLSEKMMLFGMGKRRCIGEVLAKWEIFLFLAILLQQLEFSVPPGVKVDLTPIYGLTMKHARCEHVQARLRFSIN

[16] = target: Dual specificity protein phosphatase 3 (Homo sapiens, UniProt P51452); test: SAR VHR1 Fluorescent Assay for In Vitro dose response studies Set 3. [Related pubchem assays (depositor defined):AID1654, AID1661, AID1878]; assay type: functional
Nonstructural protein 1 = Nonstructural protein 1 (Influenza A virus, UniProt Q194T2); assay type: functional, Influenza A virus (A/California/07/2009(H1N1))
[17] = target: T4, Replicative DNA helicase DnaB (Mycobacterium tuberculosis, UniProt P9WMR3); test: DnaB intein splicing inhibitors, dose response, biochemical, cell-free fluorescence (AID 449749); assay type: functional
T4 sequence (P9WMR3 whole entry): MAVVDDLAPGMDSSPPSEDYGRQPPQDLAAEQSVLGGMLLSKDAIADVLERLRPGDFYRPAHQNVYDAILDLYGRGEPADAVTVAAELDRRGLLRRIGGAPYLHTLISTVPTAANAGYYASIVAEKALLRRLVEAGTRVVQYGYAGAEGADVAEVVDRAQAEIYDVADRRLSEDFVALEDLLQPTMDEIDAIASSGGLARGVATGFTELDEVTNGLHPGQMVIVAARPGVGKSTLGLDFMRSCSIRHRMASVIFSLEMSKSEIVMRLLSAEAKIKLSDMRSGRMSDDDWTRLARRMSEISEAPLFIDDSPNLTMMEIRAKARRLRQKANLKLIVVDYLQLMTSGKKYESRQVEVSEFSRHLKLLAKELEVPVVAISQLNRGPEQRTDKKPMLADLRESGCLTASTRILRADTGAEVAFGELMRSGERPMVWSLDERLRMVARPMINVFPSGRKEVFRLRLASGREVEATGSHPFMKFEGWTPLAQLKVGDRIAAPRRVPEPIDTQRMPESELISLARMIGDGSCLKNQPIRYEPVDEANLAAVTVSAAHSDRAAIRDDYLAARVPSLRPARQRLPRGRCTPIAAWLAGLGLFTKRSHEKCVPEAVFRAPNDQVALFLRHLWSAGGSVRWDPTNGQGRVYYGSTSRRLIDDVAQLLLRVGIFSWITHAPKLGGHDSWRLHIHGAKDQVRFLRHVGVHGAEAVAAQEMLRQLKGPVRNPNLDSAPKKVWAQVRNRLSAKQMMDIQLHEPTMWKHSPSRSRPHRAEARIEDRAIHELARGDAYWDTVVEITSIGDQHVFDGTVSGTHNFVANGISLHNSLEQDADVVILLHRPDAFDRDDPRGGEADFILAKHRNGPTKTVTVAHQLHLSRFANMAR

Protein RecA = target: T5, Protein RecA (Mycobacterium tuberculosis, UniProt P9WHJ3); test: Fluorescence Cell-Free Homogeneous Dose Retest to Identify Inhibitors of RecA-Intein Splicing Activity. [Related pubchem assays (depositor defined):AID2097, AID2223, AID489010, AID492950]; assay type: functional
T5 sequence (P9WHJ3 whole entry): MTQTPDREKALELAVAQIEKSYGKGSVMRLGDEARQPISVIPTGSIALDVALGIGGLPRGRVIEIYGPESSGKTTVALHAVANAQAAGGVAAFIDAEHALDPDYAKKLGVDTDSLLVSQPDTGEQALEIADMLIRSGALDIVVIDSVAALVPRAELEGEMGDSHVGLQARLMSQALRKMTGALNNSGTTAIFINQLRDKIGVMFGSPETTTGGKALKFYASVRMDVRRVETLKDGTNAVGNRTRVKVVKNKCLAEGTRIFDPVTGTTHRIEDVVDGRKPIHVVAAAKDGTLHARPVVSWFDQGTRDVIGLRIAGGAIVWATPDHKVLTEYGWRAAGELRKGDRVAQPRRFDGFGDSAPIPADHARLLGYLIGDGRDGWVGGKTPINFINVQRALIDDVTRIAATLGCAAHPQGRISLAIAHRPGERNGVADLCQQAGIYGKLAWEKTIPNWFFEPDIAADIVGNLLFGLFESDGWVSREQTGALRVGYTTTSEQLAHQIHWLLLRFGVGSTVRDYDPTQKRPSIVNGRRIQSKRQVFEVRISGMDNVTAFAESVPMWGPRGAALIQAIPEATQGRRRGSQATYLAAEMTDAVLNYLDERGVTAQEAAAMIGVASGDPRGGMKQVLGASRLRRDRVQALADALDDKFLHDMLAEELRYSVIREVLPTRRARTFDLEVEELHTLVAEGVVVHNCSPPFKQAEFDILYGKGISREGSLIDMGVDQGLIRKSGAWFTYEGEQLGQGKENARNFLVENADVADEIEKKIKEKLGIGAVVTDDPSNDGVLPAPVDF

MDCK = test: antiviral activity against H1N1 influenza, dose response, cell-based, strain KY136 (AID 540257); assay type: functional; settings: Canis lupus familiaris
Cytochrome P450 2C9 = Cytochrome P450 2C9 (Homo sapiens, UniProt P11712)
[18] = Late-stage probe development counterscreen for inhibitors of the Hepatitis C Virus non-structural protein 3 helicase (NS3): luminescence-based cell-based dose response assay to determine whether compounds that inhibit replication of HCV RNA replicon are cytotoxic. [Related pubchem assays (depositor defined):AID1800, AID1830, AID1845, AID1943, AID1945, AID2172, AID2173, AID2474, AID2476]; assay type: functional

T1 sequence (Q00975 whole entry): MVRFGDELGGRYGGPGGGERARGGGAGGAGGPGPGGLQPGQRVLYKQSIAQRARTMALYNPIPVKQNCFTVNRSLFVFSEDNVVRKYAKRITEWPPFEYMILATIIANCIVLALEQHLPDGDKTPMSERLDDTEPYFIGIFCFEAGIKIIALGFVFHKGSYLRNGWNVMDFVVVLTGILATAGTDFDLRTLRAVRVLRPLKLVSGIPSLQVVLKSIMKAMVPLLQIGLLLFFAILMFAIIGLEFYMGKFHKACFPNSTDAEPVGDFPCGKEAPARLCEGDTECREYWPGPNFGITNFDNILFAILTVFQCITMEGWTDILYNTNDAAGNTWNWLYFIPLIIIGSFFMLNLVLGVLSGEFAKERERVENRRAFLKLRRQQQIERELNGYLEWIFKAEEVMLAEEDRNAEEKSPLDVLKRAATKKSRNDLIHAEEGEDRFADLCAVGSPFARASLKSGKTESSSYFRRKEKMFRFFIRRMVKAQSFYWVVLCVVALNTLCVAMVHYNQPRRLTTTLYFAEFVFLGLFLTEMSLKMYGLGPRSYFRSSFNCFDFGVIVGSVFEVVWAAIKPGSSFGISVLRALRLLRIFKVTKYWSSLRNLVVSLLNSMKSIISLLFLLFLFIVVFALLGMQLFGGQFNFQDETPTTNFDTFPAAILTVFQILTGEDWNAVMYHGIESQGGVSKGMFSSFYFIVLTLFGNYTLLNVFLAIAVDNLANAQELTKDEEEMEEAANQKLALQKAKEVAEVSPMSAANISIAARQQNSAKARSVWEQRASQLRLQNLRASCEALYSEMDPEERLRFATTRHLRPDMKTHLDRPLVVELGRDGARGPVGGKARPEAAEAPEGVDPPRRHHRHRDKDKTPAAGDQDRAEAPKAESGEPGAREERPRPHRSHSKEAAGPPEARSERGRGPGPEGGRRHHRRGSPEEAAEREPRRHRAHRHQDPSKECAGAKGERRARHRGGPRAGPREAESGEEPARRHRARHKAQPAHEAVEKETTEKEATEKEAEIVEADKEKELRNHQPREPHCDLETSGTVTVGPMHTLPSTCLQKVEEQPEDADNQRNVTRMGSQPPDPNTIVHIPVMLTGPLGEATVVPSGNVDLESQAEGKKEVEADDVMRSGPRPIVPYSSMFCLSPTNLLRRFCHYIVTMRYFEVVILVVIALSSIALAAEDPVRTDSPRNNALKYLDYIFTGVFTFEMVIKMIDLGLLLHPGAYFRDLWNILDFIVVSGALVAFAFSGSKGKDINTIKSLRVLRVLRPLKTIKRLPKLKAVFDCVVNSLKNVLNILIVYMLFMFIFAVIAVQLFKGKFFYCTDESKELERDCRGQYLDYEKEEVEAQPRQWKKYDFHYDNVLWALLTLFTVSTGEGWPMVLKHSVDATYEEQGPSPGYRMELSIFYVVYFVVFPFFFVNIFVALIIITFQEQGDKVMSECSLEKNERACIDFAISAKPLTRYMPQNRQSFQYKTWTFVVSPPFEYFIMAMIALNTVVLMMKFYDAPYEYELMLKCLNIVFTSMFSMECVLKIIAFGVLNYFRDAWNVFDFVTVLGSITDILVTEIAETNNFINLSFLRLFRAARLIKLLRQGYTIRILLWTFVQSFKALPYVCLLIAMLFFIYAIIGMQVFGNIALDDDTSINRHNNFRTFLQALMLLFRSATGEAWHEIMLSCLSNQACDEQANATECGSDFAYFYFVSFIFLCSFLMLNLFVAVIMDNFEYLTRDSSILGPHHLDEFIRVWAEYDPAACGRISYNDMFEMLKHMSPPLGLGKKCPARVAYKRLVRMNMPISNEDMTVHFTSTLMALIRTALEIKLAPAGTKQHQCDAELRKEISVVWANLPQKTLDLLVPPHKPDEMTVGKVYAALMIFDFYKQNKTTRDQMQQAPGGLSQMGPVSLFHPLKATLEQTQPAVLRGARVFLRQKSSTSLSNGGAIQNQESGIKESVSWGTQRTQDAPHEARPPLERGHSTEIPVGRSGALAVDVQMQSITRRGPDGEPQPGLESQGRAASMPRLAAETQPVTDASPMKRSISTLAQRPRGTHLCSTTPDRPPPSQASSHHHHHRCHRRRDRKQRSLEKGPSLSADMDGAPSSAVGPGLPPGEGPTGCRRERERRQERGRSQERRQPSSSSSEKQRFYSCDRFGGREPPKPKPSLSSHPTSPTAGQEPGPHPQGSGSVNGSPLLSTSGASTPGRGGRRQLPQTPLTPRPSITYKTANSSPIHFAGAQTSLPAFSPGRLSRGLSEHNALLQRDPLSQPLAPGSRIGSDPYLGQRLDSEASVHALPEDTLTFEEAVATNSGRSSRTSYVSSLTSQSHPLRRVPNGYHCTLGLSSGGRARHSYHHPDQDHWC
T1 sequence (Q02410 whole entry): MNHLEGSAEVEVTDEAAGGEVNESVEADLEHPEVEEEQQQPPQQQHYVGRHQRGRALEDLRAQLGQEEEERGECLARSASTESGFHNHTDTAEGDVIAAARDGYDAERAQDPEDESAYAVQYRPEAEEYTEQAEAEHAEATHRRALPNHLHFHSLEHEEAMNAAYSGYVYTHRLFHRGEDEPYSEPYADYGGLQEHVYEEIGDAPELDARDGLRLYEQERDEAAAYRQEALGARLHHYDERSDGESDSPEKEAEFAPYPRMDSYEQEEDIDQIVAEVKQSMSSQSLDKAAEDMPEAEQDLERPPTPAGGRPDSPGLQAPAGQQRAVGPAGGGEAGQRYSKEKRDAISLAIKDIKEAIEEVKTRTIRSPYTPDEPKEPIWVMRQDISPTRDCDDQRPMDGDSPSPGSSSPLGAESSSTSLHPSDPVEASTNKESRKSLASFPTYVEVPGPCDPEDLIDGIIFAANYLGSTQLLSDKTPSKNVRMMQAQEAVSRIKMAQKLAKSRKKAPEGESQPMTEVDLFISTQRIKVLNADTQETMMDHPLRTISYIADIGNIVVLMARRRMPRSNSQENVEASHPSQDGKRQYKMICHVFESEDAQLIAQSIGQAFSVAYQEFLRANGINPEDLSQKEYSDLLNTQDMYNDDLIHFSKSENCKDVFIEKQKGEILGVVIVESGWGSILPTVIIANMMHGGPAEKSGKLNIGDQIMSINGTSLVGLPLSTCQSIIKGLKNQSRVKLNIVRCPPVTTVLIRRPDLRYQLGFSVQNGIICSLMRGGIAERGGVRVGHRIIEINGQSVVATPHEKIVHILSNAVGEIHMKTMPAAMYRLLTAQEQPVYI
Sequence of Cytochrome P450 2C19 (P33261 whole entry): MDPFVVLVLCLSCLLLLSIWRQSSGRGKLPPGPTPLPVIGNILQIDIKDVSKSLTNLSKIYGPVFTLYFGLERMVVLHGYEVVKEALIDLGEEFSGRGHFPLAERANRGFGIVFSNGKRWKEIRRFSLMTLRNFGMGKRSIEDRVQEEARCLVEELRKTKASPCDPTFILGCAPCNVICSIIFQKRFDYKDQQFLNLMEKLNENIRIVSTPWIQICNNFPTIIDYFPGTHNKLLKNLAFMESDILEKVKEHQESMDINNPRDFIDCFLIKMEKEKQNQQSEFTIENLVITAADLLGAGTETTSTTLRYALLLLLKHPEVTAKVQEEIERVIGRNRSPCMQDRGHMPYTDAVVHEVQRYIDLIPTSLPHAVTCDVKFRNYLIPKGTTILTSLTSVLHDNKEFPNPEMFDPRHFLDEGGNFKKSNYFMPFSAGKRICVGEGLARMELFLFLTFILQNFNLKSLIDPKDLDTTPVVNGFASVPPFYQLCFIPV
Sequence of Dual specificity protein phosphatase 3 (P51452 whole entry): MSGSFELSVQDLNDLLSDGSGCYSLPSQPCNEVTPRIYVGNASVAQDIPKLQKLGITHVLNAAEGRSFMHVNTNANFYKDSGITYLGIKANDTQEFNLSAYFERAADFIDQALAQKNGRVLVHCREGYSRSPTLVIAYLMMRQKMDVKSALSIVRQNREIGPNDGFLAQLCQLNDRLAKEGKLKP
Sequence of Nonstructural protein 1 (Q194T2 whole entry): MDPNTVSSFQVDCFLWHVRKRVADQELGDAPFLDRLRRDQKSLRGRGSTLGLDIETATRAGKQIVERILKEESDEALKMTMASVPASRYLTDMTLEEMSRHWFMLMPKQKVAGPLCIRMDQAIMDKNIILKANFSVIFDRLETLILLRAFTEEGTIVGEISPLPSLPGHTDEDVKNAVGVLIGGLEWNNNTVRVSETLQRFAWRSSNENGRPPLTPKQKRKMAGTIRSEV
Sequence of E3 ubiquitin-protein ligase Mdm2 (Q00987 whole entry): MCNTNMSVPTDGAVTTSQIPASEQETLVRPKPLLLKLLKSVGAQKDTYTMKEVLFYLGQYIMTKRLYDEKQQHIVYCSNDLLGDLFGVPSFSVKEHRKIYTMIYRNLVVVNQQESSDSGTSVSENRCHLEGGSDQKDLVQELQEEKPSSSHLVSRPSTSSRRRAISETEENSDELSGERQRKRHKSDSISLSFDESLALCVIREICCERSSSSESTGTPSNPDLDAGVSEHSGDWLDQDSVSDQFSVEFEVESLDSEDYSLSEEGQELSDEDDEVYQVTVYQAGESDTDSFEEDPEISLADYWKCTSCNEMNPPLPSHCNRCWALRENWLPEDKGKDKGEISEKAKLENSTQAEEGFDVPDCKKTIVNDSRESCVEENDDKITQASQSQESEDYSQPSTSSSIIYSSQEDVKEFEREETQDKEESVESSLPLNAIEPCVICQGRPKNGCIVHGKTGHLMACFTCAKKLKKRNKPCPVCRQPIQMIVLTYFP
Sequence of Cytochrome P450 2C9 (P11712 whole entry): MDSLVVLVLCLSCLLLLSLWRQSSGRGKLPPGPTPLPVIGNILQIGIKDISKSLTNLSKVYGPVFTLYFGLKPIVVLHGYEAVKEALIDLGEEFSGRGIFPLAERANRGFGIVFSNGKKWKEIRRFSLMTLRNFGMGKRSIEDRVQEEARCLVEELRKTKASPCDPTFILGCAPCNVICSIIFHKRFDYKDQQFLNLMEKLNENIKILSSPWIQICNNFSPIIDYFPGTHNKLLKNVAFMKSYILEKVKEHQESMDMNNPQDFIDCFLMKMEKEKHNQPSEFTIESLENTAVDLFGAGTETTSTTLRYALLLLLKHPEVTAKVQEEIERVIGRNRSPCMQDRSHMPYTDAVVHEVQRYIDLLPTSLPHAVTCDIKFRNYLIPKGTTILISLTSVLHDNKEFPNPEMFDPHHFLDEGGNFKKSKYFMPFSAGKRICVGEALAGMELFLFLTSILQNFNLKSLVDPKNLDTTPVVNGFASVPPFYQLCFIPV

Compound: CCCCCCc1cc2cc(-c3nnc(-c4ccccc4OC)o3)c(=O)oc2cc1O
- EC50 (HEK293 [1]): 6.54 µM (active)
- IC50 (HEK293 [2]): 9.41 µM (active)
- IC50 [3]: > 56.8 µM (not active)
- IC50 (HEK293 [4]): > 20 µM (inactive)
- EC50 [5]: > 20 µM (inactive)
- IC50 (HEK293 [6]): 8.48 µM (active)
- IC50 [7]: > 50 µM (inactive)
- IC50 (HEK293 [8]): > 20 µM (inactive)
- IC50 [9]: 15.9 µM (active)

Compound: O=C1N/C(=C/c2ccc(N3CCOCC3)o2)C(=O)N1c1ccccc1
- EC50 [10]: 6.73 µM (not active)
- AC50 [11]: > 195 µM (inactive)
- AC50 [12]: 45.7 µM (active)
- AC50 [13]: > 70 µM (inactive)
- AC50 [14]: 5.03 µM (active)

Compound: Oc1nncc(-c2ccccc2)n1
- AC50 (Cytochrome P450 2C19): inconclusive
- AC50 [15]: 58.5 µM (active)
- AC50 (Cytochrome P450 1A2): 14.1 µM (inconclusive)

Compound: Cn1c(SCC(=O)Nc2ccc3nc(SCC(=O)c4ccc(Cl)cc4)sc3c2)nnc1-c1ccc(N)cc1
- IC50 [16]: 40.6 µM (active)

Compound: CC1(C)c2ssc(=S)c2-c2ccccc2N1C(=O)CSC1=NCCS1
- IC50 (Nonstructural protein 1): 27.7 µM (active)
- AC50 (Cytochrome P450 2C19; read-out: AC50): 0.891 µM (inconclusive)
- AC50 [17]: 5.8 µM (active)
- EC50 (Protein RecA): 4.27 µM (active)
- IC50 (MDCK): > 100 µM (active)
- AC50 (Cytochrome P450 1A2): 2 µM (inconclusive)
- AC50 (Cytochrome P450 2C9): 2.82 µM (inconclusive)

Compound: COc1ccc(C=NNC(=O)c2cc(O)c(O)c(O)c2)cc1COc1ccc(C(=O)OCC(C)C)cc1
- CC50 [18]: > 100 µM (inactive)
